In patent US20250312365A1, “METHODS FOR INHIBITION OF SQUAMOUS CARCINOMA CELLS USING CERAMIDE MODULATORS” (The Trustees of Indiana University, priority 2024, published 2025):
Entries after “also recorded” stand apart in the source; their conditions may differ.

What was measured:
[1] = system: human gingival squamous carcinoma cells (OECM1); conditions: Yamada et al. 2023; cited from earlier work
ASAH1 [2] = conditions: Yamada et al. 2023; cited from earlier work
[3] = system: ceramide and dihydroceramide in OECM1 cells; conditions: Yamada et al. 2023; cited from earlier work
[4] = system: human gingival squamous carcinoma cells (OECM1); assay: Cell viability/proliferation assay (WST-1) in OECM1 cells; assay type: cell-based; conditions: for OECM1 viability / proliferation: 0.1, 1, 2 and 5 μg/ml, normalized to control
Excerpt: (§1) In specific examples, colorimetric assays can be used to assess cellular viability and proliferation of cell cultures, such as MTT, WST-1, and resazurin assays. See, e.g., Präbst et al., Methods Mol Biol. 2017:1601:1-17.
(§2) Various cell lines were exposed to PGDHC, including human gingival squamous carcinoma cells (OECM1), tongue squamous carcinoma cells (SCC4, SCC9), and healthy human gingival epithelial control cells (OBA9) in vitro.
(§3) To elucidate the effects of C16:0 and dh-C16:0 on oral squamous cell carcinoma, the ability of exogenous C16:0 and dh-C16:0 to modulate proliferation and ceramidase expression in OECM1 cells was determined. […] In contrast, no effect of C16:0 on ASAH1 and ACER2 mRNA expressions.
(§4) LCL521 is a dose-dependent acid ceramidase inhibitor. Comparison of the concentration-dependent effects of an acid ceramidase inhibitor, LCL521 (MedChemExpress®), and the bacterial-isolated a15:0-15:0PE phospholipid on the viability of healthy human epithelial, OBA9, and oral squamous cancer cell lines, OECM1 and SCC9, in vitro was evaluated. […] (FIG. 15A). […] (FIG. 15B).

ASAH1 [5] = assay: ASAH1 (acid ceramidase) mRNA expression in OECM1 cells; assay type: cell-based, human; conditions: for expression of ASAH1 in OECM1 cells: 1 μg/ml, compared to sham control
Excerpt: (§5) Exemplary ceramidase genes, the expression of which can be measured to determine upregulation, include but are not limited to ASAH1, ACER2, and ACER3. A determination of ceramidase gene expression can be made according to methods available to one of skill in the art. For example, Yamada et al., J Cell Mol Med. 2023 May;27(9):1290-1295 and Kyriakou et al., Int. J. Mol. Sci. 2020, 21(5):1607 describes measuring the mRNA levels of ceramidases by RNA extraction and RT-PCR.
(§6) To test this hypothesis, it was first determined whether artificially elevated intracellular concentration of ceramide species affect the expression of acid/ASAH1, neutral/ASAH2, and alkaline1-3/ACER1-3 ceramidases in oral squamous cell carcinoma cells using C6-ceramide. Applicant previously reported that C6-ceramide serves as a positive control for PGDHC-mediated inflammation (Kanzaki et al., Biochim Biophys Acta Mol Cell Biol Lipids. 2017 May;1862(5):452-462) and promotes the intracellular accumulation of ceramide in cancer cells. See, e.g., Zhang et al., Front Plant Sci. 2020 Feb. 26:11:145, Zhai et al., Biochem Biophys Res Commun. 2015 December;468(1-2):274-80, Wilhelm et al., Cancers (Basel). 2021 Jan. 13;13(2):270, and Chapman et al., Biochem Pharmacol. 2010 Aug. 1;80(3):308-15.
(§7) Next, the effect of PGDHC on ceramidase gene expression was determined. OECM1 and SCC4 cells were exposed to 0.1 or 1 μg/ml of PGDHC. The mRNA levels of ceramidases were then measured following PGDHC exposure. PGDHC inhibited the expression of ASAH1 and ACER2 mRNAs in OECM1 (FIG. 8). […] See, e.g., Vijayan et al., J Adv Res. 2023 Dec. 21:S2090-1232(23)00403-4, Doan et al., Oncotarget. 2017 Nov. 7;8(68):112662-112674., Lai et al., Sci Rep. 2021 May 27;11(1):11221, Liu et al., Cancer Sci. 2020 July;111(7):2259-2274., and Liu et al., Front Genet. 2023 Mar. 1:14:1148437.
as §3
(§8) We evaluated the effect of a15:0-i15:0 phosphoethanolamine phospholipid (FIG. 1D), isolated from the gut bacteria Akkermansia muciniphila on OSCC cells.

ACER2 = ACER2 mRNA expression in OECM1 cells; assay type: cell-based, human; conditions: 1 μg/ml, compared to sham control
Excerpt: as §5, §6, §7, §3

ACER3 = ACER3 mRNA expression in OECM1 cells; assay type: cell-based, human; conditions: 1 μg/ml, compared to sham control
Excerpt: as §5
as §6, with “13;13(2):270, and Chapman et al., Biochem Pharmacol. 2010 Aug. 1;80(3):308-15.” left out
To elucidate the effects of C16:0 and dh-C16:0 on oral squamous cell carcinoma, the ability of exogenous C16:0 and dh-C16:0 to modulate proliferation and ceramidase expression in OECM1 cells was determined. […]

[6] = system: tongue squamous carcinoma cells (SCC9); assay: Cell viability/proliferation assay (WST-1) in SCC9 cells; assay type: cell-based, human
Excerpt: as §1, §2, §4

[7] = system: healthy human gingival epithelial control cells (OBA9); assay: Cell viability/proliferation assay (WST-1) in healthy OBA9 cells; assay type: cell-based
Excerpt: as §1, §2, §4

ASAH1 [8] = assay: ASAH1 mRNA expression in SCC9 cells; assay type: cell-based, human; conditions: different concentrations of a15:0-i15:0PE
Excerpt: as §8

acid ceramidase = assay: Acid ceramidase level by confocal microscopy in SCC9 cells; assay type: cell-based, human
Excerpt: as §8

SCC9 cells = assay: Untargeted metabolomic pathway analysis (LC/MS) in SCC9 cells; assay type: cell-based, human; conditions: 1 μg/ml for 6 h
Excerpt: The plots in FIGS. 16A and 16B display the enriched pathways identified in the analysis, with their corresponding significance levels represented on the x-axis. The significance threshold (p<0.05) is denoted by the dashed line. […] Additionally, the color of the dots represents the enrichment, which indicates the extent to which the metabolites in the pathway were clustered amongst the compounds with the most positive fold-changes (positive enrichments), the most negative fold-changes (negative enrichments), or uniformly distributed across high and low fold-change compounds (enrichment values near 0.0). […] Polar and lipid metabolites were analyzed with hydrophilic interaction chromatography (HILIC/MS) and liquid chromatography (LC/MS), respectively. Mass spectrometry analysis was completed with a mass range of 67-1500 Da with 1 scan/sec and a mass resolution of 120,000 in both positive and negative ionization mode. The MS/MS mass-spectrometry data were acquired in a data-dependent iterative fashion with a 1.3 m/z isolation window. Based upon this metabolomic analysis, phosphoglycerol dihydroceramide (PGDHC) isolated from Porphyromonas gingivalis inhibits metabolomic pathways essential for cell survival in oral squamous cell carcinoma cells (OSCC). […]
SCC9 were exposed to a15:0-i15:0PE (1 μg/ml) for 6 h in vitro. […] The significance threshold (p<0.05) is denoted by the grey dashed line. […] Additionally, the color of the dots represents the enrichment, which indicates the extent to which the metabolites in the pathway were clustered amongst the compounds with the most positive fold-changes (positive enrichments), the most negative fold-changes (negative enrichments), or uniformly distributed across high and low fold-change compounds (enrichment values near 0.0).

[9] = at concentrations lower than 1 μg/mL

phosphoethanolamine dihydroceramide [PEDHC]
proliferation of OECM1 cells [1]: inhibited the proliferation
ASAH1 (acid ceramidase) expression in OECM1 cells (ASAH1 [2]): inhibition; also recorded: downregulation
accumulation of antiproliferative ceramides in OECM1 cells [3]: elevated accumulation

CCCCCCCCCCCCCCCC(=O)N[C@@H](CO)[C@H](O)CCCCCCCCCCCCCCC [dh-C16:0, Dihydroceramide C16:0]
OECM1 viability / proliferation [4]: significantly inhibited OECM1 cells proliferation in a concentration-dependent manner
expression of ASAH1 in OECM1 cells (ASAH1 [5]): dramatically inhibits
expression of ACER2 in OECM1 cells (ACER2): dramatically inhibits
expression of ACER3 in OECM1 cells (ACER3): dramatically inhibits

CCCCCCCCCCCCC/C=C/[C@@H](O)[C@H](CO)NC(=O)CCCCCCCCCCCCCCC [C16:0, C16:0 ceramide]
expression of ASAH1 in OECM1 cells (ASAH1 [5]): no effect
expression of ACER2 in OECM1 cells (ACER2): no effect

CCCCCCCCCCCCC/C=C/[C@@H](O)[C@H](CO)NC(=O)CCCCC [C6-ceramide]
OECM1 viability / proliferation [4]: inhibited OECM1 viability in a concentration-dependent manner
expression of ASAH1 in OECM1 cells (ASAH1 [5]): inhibited expression
expression of ACER2 in OECM1 cells (ACER2): inhibited expression
expression of ACER3 in OECM1 cells (ACER3): inhibited expression

CCCCCCCCCCCCCC(=O)N[C@H](COC(=O)CN(C)C)[C@H](OC(=O)CN(C)C)c1ccc([N+](=O)[O-])cc1 [LCL521, reference compound]
inhibition of viability of OECM1 ([4]; 10 μM): 20%
inhibition of viability of SCC9 ([6]; 10 μM): 20%
inhibition of viability of OBA9 ([7]; 10 μM): over 50%

CC[C@H](C)CCCCCCCCCCC(=O)OC[C@H](COP(=O)(O)OCCN)OC(=O)CCCCCCCCCCCC(C)C [a15:0-15:0PE, 1-(12S-methylmyristoyl)-2-(13-methylmyristoyl)-sn-glycero-3-phosphoethanolamine]
viability of OECM1 cells [4, 9]: significantly inhibited
viability of SCC9 cells [6, 9]: significantly inhibited
healthy OBA9 cell viability ([7]; concentrations of 0.1, 1.0 and 2.0 μM (FIG. 15B)): No significant effect
expression patterns of ASAH1 mRNA in OECM1 (ASAH1 [5]; different concentrations of a15:0-i15:0PE): dose-dependent decrease in expression
expression patterns of ASAH1 mRNA in SCC9 (ASAH1 [8]): dose-dependent decrease in expression
levels of acid ceramidase in SCC9 cells (confocal, corrected total cell fluorescence) (acid ceramidase): decreased expression
amino fatty acid metabolism in SCC9 cells (SCC9 cells): inhibits
arginine and proline metabolism in SCC9 cells (SCC9 cells): inhibits
vitamin B6 metabolism in SCC9 cells (SCC9 cells): inhibits
amino fatty acid metabolism in SCC9 cells (SCC9 cells; listed as a15:0-i15:0PE): diminished accumulation
arginine and proline metabolism in SCC9 cells (SCC9 cells; listed as a15:0-i15:0PE): diminished accumulation
vitamin B6 metabolism in SCC9 cells (SCC9 cells; listed as a15:0-i15:0PE): diminished accumulation
